From patent US20260008739A1, “CRYSTAL AND FORMULATION OF REDUCED COENZYME Q10” (KANEKA CORPORATION, priority 2023, published 2026)

Experiment: Oxidation stability of QH crystals on storage at 40° C. and 75% RH (HPLC of reduced and oxidized coenzyme Q10)
Assay type: physicochemical
Details: for Relative QH ratio: QH ratio before storage = 100; for Oxidizing rate: crystal stored at 40° C. and 75% RH for approximately 1 month, decrease in relative QH ratio divided by days of storage
Procedure: The QH crystals prepared in Examples 1 to 3 and Comparative Examples 1 and 2 above were stored at 40° C. and 75% RH in a thermostatic chamber for approximately 1 month. Before and after the storage, the reduced coenzyme Q10 content and the oxidized coenzyme Q10 content of the crystal were measured by HPLC (high performance liquid chromatography). On the basis of the measurement results, the below-described QH ratio, relative QH ratio after storage, and oxidizing rate were calculated.
• Column: AS12S05-1546WT (manufactured by YMC Co., Ltd.) 150 mm (in length) and 4.6 mm (in inner diameter) • Mobile phase: C2H3N: CH3OH=1:9 (v:v) • Detection wavelength: 290 nm • Flow rate: 1 ml/min
The “QH ratio” means the ratio of the amount of the reduced coenzyme Q10 to the total amount of the coenzyme Q10 present in the crystal, and is calculated in accordance with the following formula.
The “relative QH ratio after storage” is a value obtained by relativizing the QH ratio after storage on the basis of each of the QH ratios measured before the start of storage and after storage, assuming that the QH ratio before storage is 100. The relative QH ratio after storage is calculated in accordance with the following formula.
The “oxidizing rate” is a value obtained by dividing a change (amount of decrease) in the relative QH ratio in the period of storage by the number of days of storage, and is calculated in accordance with the following formula.

[1] = crystal stored at 40° C. and 75% RH for 28 days

SMILES	Relative QH ratio (crystal stored at 40° C. and 75% RH for 29 days)	Oxidizing rate [%/day]	Relative QH ratio [1]
COc1c(O)c(C)c(C/C=C(\C)CC/C=C(\C)CC/C=C(\C)CC/C=C(\C)CC/C=C(\C)CC/C=C(\C)CC/C=C(\C)CC/C=C(\C)CC/C=C(\C)CCC=C(C)C)c(O)c1OC [Comparative Example 1, reduced coenzyme Q10]	86.1 (when stored %	0.48	–
COc1c(O)c(C)c(C/C=C(\C)CC/C=C(\C)CC/C=C(\C)CC/C=C(\C)CC/C=C(\C)CC/C=C(\C)CC/C=C(\C)CC/C=C(\C)CC/C=C(\C)CCC=C(C)C)c(O)c1OC [Example 2, reduced coenzyme Q10]	–	0.26	92.6 (when stored %
COc1c(O)c(C)c(C/C=C(\C)CC/C=C(\C)CC/C=C(\C)CC/C=C(\C)CC/C=C(\C)CC/C=C(\C)CC/C=C(\C)CC/C=C(\C)CC/C=C(\C)CCC=C(C)C)c(O)c1OC [Example 3, reduced coenzyme Q10]	–	0.23	93.5 (when stored %
COc1c(O)c(C)c(C/C=C(\C)CC/C=C(\C)CC/C=C(\C)CC/C=C(\C)CC/C=C(\C)CC/C=C(\C)CC/C=C(\C)CC/C=C(\C)CC/C=C(\C)CCC=C(C)C)c(O)c1OC [Comparative Example 2, reduced coenzyme Q10]	–	0.42	88.2 (when stored %
COc1c(O)c(C)c(C/C=C(\C)CC/C=C(\C)CC/C=C(\C)CC/C=C(\C)CC/C=C(\C)CC/C=C(\C)CC/C=C(\C)CC/C=C(\C)CC/C=C(\C)CCC=C(C)C)c(O)c1OC [Example 1, reduced coenzyme Q10]	–	0.30	91.6 (when stored %
